Patent US9617240B2 (TEIJIN PHARMA LIMITED, priority 2013, dated 2017)
pIC50: −log10 of the molar value.

Target: T1, oxidase type xanthine oxidase (derived from buttermilk) (Bos taurus, UniProt P80457)
T1 construct: oxidase type xanthine oxidase (derived from buttermilk, supplied by Calbiochem Novabiochem Corp.); purchased Calbiochem Novabiochem Corp; host or cells: buttermilk (natural source)
Experiment: Xanthine oxidase inhibitory activity (absorbance change at 290 nm)
Assay type: biochemical
Details: xanthine substrate, 100 mM phosphate buffer, absorbance at 290 nm for 5 minutes; read-out: Inhibitory Activity (50% inhibitory concentration with respect to oxidase type xanthine oxidase)
Procedure: The xanthine oxidase inhibitory activity was measured for the compounds synthesized according to the above Examples.
After a test compound was dissolved in DMSO (manufactured by Sigma Co.) so that the concentration is 20 mM, the test compound was prepared and used at a desired concentration at the time of use.
The evaluation of the xanthine oxidase inhibitory activity of the compounds of the present invention was conducted by partially modifying the method described in the literature (Method Enzymatic Analysis, 1, 521-522, 1974). The present evaluation is based on the oxidase type xanthine oxidase inhibitory activity evaluation. That is, a xanthine (manufactured by Sigma Co.) solution prepared at 10 mM in advance using a 20 mM sodium hydroxide solution was adjusted to 30 μM using a 100 mM phosphate buffer solution, and 75 μL/well of each solution was added into a 96-well plate. Aliquots (1.5 μL/well) of each test sample, which was diluted with DMSO so that the concentration is 100 times the final concentration, were added into a 96-well plate, and after mixing, the absorbance at 290 nm was measured by a microplate reader SPECTRA MAX Plus 384 (manufactured by Molecular Devices, LLC). Subsequently, oxidase type xanthine oxidase (derived from buttermilk, supplied by Calbiochem Novabiochem Corp.) was prepared at 30.6 mU/mL using a 100 mM phosphate buffer solution and 73.5 μL/well of each solution was added. Immediately after mixing, the change in absorbance at 290 nm was measured for 5 minutes. The enzyme activity when DMSO was used instead of a test compound solution was defined as 100%, the inhibitory rate of the test compounds was calculated and the 50% inhibitory concentration with respect to oxidase type xanthine oxidase was calculated by fitting to the dose-response curve.
Note that the symbols (+, ++, +++) in the table represent inhibitory activity values as shown below.

T1 sequence (P80457 whole entry): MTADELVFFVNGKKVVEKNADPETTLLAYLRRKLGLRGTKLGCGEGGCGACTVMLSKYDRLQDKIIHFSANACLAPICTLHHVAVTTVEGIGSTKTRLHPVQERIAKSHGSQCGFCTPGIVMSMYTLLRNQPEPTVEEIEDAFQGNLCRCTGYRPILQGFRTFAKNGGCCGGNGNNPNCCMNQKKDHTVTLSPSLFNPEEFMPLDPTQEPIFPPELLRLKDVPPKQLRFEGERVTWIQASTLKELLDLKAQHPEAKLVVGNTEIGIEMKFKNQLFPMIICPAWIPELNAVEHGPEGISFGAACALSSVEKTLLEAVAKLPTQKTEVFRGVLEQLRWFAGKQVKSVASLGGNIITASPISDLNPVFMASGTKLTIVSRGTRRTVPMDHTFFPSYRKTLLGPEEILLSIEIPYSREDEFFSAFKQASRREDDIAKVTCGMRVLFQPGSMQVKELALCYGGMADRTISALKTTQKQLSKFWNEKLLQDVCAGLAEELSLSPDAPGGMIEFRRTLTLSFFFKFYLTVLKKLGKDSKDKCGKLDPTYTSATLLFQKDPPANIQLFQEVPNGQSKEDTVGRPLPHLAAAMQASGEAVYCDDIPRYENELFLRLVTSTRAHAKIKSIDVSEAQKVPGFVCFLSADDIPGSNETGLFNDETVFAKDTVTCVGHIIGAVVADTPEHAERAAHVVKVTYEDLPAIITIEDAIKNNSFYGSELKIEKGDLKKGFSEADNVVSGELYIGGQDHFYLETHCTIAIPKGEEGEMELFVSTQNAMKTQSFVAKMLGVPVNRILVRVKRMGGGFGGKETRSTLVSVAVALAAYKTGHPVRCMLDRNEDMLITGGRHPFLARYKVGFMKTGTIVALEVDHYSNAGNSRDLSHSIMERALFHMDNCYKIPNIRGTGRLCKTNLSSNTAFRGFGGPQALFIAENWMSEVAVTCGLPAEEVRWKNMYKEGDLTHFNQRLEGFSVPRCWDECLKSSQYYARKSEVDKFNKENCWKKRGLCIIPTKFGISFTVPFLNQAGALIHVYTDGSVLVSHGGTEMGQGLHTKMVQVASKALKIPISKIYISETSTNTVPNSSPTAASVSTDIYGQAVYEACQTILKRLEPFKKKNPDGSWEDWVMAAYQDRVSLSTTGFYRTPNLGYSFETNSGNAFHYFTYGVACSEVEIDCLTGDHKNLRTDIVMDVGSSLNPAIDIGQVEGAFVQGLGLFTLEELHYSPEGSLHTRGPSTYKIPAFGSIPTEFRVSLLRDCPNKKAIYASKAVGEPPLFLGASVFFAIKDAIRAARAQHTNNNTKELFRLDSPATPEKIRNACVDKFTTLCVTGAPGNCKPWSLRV

| pIC50 | SMILES |
| --- | --- |
| 8.00 to 8.30 | COc1cccc(F)c1-c1cnc(-n2cc(C(=O)O)cn2)cc1C#N [Compound 18, 1-[4-cyano-5-(2-fluoro-6-methoxyphenyl)pyridin-2-yl]-1H-pyrazole-4-carboxylic acid] |
| 8.00 to 8.30 | N#Cc1cc(-n2cc(C(=O)O)cn2)ncc1-c1ccoc1 [Compound 23, 1-[4-cyano-5-(furan-3-yl)pyridin-2-yl]-1H-pyrazole-4-carboxylic acid] |
| 8.30 to 9.00 | N#Cc1cc(-n2cc(C(=O)O)c(N)n2)ncc1-c1ccc(F)cc1 [Compound 99, 3-amino-1-[4-cyano-5-(4-fluorophenyl)pyridin-2-yl]-1H-pyrazole-4-carboxylic acid] |
| 8.30 to 9.00 | Cc1cc(-c2cnc(-n3cc(C(=O)O)c(N)n3)cc2C#N)ccc1F [Compound 106, 3-amino-1-[4-cyano-5-(4-fluoro-3-methylphenyl)pyridin-2-yl]-1H-pyrazole-4-carboxylic acid] |
| 8.30 to 9.00 | N#Cc1cc(-n2cc(C(=O)O)cn2)ncc1-c1ccccc1F [Compound 5, 1-[4-cyano-5-(2-fluorophenyl)pyridin-2-yl]-1H-pyrazole-4-carboxylic acid] |
| 8.00 to 8.30 | N#Cc1cc(-n2cc(C(=O)O)cn2)ncc1-c1cccc(Cl)c1 [Compound 12, 1-[4-cyano-5-(3-chlorophenyl)pyridin-2-yl]-1H-pyrazole-4-carboxylic acid] |
| 8.00 to 8.30 | CN(C)c1cccc(-c2cnc(-n3cc(C(=O)O)cn3)cc2C#N)c1 [Compound 67, 1-{4-cyano-5-[3-(dimethylamino)phenyl]pyridine-2-yl}-1H-pyrazole-4-carboxylic acid] |
| 8.30 to 9.00 | CS(=O)(=O)Nc1ccc(-c2cnc(-n3cc(C(=O)O)cn3)cc2C#N)cc1 [Compound 69, 1-[4-cyano-5-(4-methanesulfonamidophenyl)pyridine-2-yl]-1H-pyrazole-4-carboxylic acid] |
| 8.30 to 9.00 | N#Cc1cc(-n2cc(C(=O)O)cn2)ncc1-c1ccc(C(=O)O)cc1 [Compound 42, 1-[5-(4-carboxyphenyl)-4-cyanopyridin-2-yl]-1H-pyrazole-4-carboxylic acid] |
| ≤ 8.00 | N#Cc1cc(-n2cc(C(=O)O)cn2)cnc1-c1ccccc1 [Compound 75, 1-(5-cyano-6-phenylpyridin-3-yl)-1H-pyrazole-4-carboxylic acid] |
| 8.30 to 9.00 | N#Cc1cc(-n2cc(C(=O)O)cn2)ncc1-c1ccc2ccccc2c1 [Compound 57, 1-[4-cyano-5-(naphthalen-2-yl)pyridin-2-yl]-1H-pyrazole-4-carboxylic acid] |
| ≤ 8.00 | N#Cc1cc(-n2cc(C(=O)O)cn2)cnc1-c1ccccc1F [Compound 76, 1-[5-cyano-6-(2-fluorophenyl)pyridin-3-yl]-1H-pyrazole-4-carboxylic acid] |
| 8.00 to 8.30 | N#Cc1cc(-n2cc(C(=O)O)cn2)ncc1-c1cccc(C(F)(F)F)c1 [Compound 45, 1-{4-cyano-5-[3-(trifluoromethyl)phenyl]pyridin-2-yl}-1H-pyrazole-4-carboxylic acid] |
| ≤ 8.00 | N#Cc1cc(-n2cc(C(=O)O)cn2)ncc1-c1cccnc1 [Compound 25, 1-[4-cyano-5-(pyridin-3-yl)pyridin-2-yl]-1H-pyrazole-4-carboxylic acid] |
| ≤ 8.00 | CC(C)c1nn(-c2cc(C#N)c(-c3ccccc3)cn2)cc1C(=O)O [Compound 27, 1-(4-cyano-5-phenylpyridin-2-yl)-3-(propan-2-yl)-1H-pyrazole-4-carboxylic acid] |
| ≤ 8.00 | Cc1cc(-c2ccc(-n3cc(C(=O)O)cn3)nc2C#N)ccc1F [Compound 94, 1-[6-cyano-5-(4-fluoro-3-methylphenyl)pyridin-2-yl]-1H-pyrazole-4-carboxylic acid] |
| ≤ 8.00 | Cc1cc(F)ccc1-c1cnc(-n2cc(C(=O)O)cn2)cc1C#N [Compound 49, 1-[4-cyano-5-(4-fluoro-2-methylphenyl)pyridin-2-yl]-1H-pyrazole-4-carboxylic acid] |

| pIC50 | SMILES |
| --- | --- |
| ≤ 8.00 | COc1cccc(F)c1-c1ccc(-n2cc(C(=O)O)cn2)nc1C#N [Compound 96, 1-[6-cyano-5-(2-fluoro-6-methoxyphenyl)pyridin-2-yl]-1H-pyrazole-4-carboxylic acid] |
| 8.30 to 9.00 | CCCOc1cccc(-c2cnc(-n3cc(C(=O)O)cn3)cc2C#N)c1 [Compound 31, 1-[4-cyano-5-(3-propoxyphenyl)pyridin-2-yl]-1H-pyrazole-4-carboxylic acid] |
| 8.00 to 8.30 | N#Cc1cc(-n2cc(C(=O)O)cn2)ncc1-c1cccc(F)c1 [Compound 11, 1-[4-cyano-5-(3-fluorophenyl)pyridin-2-yl]-1H-pyrazole-4-carboxylic acid] |
| 8.30 to 9.00 | Cc1ccsc1-c1cnc(-n2cc(C(=O)O)cn2)cc1C#N [Compound 22, 1-[4-cyano-5-(3-methylthiophen-2-yl)pyridin-2-yl]-1H-pyrazole-4-carboxylic acid] |
| ≤ 8.00 | N#Cc1cc(-n2cc(C(=O)O)cn2)ncc1-c1cncc(F)c1 [Compound 60, 1-[4-cyano-5-(5-fluoropyridin-3-yl)pyridin-2-yl]-1H-pyrazole-4-carboxylic acid] |
| 8.30 to 9.00 | N#Cc1cc(-n2cc(C(=O)O)cn2)ncc1-c1ccsc1 [Compound 21, 1-[4-cyano-5-(thiophen-3-yl)pyridin-2-yl]-1H-pyrazole-4-carboxylic acid] |
| 8.00 to 8.30 | CC(C)COc1cccc(-c2cnc(-n3cc(C(=O)O)cn3)cc2C#N)c1 [Compound 56] |
| 8.30 to 9.00 | COc1cc(F)ccc1-c1cnc(-n2cc(C(=O)O)cn2)cc1C#N [Compound 50, 1-[4-cyano-5-(4-fluoro-2-methoxyphenyl)pyridin-2-yl]-1H-pyrazole-4-carboxylic acid] |
| 8.30 to 9.00 | Cc1ccc(F)c(-c2cnc(-n3cc(C(=O)O)c(N)n3)cc2C#N)c1 [Compound 104, 3-amino-1-[4-cyano-5-(2-fluoro-5-methylphenyl)pyridin-2-yl]-1H-pyrazole-4-carboxylic acid] |
| ≤ 8.00 | Cc1nn(-c2cc(C#N)c(-c3ccccc3)cn2)cc1C(=O)O [Compound 26, 1-(4-cyano-5-phenylpyridin-2-yl)-3-methyl-1H-pyrazole-4-carboxylic acid] |
| ≤ 8.00 | Cc1ccc(F)c(-c2ccc(-n3cc(C(=O)O)cn3)nc2C#N)c1 [Compound 88, 1-[6-cyano-5-(2-fluoro-5-methylphenyl)pyridin-2-yl]-1H-pyrazole-4-carboxylic acid] |
| 8.00 to 8.30 | COc1ccc(F)c(-c2ccc(-n3cc(C(=O)O)cn3)nc2C#N)c1 [Compound 91, 1-[6-cyano-5-(2-fluoro-5-methoxyphenyl)pyridin-2-yl]-1H-pyrazole-4-carboxylic acid] |
| 8.00 to 8.30 | N#Cc1nc(-n2cc(C(=O)O)cn2)ccc1-c1ccccc1F [Compound 86, 1-[6-cyano-5-(2-fluorophenyl)pyridin-2-yl]-1H-pyrazole-4-carboxylic acid] |
| 8.30 to 9.00 | N#Cc1cc(-n2cc(C(=O)O)cn2)ncc1-c1ccccc1Cl [Compound 6, 1-[4-cyano-5-(2-chlorophenyl)pyridin-2-yl]-1H-pyrazole-4-carboxylic acid] |
| 8.30 to 9.00 | Cc1ccc(-c2cnc(-n3cc(C(=O)O)cn3)cc2C#N)cc1F [Compound 39, 1-[4-cyano-5-(3-fluoro-4-methylphenyl)pyridin-2-yl]-1H-pyrazole-4-carboxylic acid] |
| 8.00 to 8.30 | COc1ccc(F)c(-c2ncc(-n3cc(C(=O)O)cn3)cc2C#N)c1 [Compound 84, 1-[5-cyano-6-(2-fluoro-5-methoxyphenyl)pyridin-3-yl]-1H-pyrazole-4-carboxylic acid] |
